The source of these data is US20260007634A1, “PHARMACEUTICAL COMPOSITIONS FOR THE TREATMENT OF ALLERGIC DISEASES” (KINKI UNIVERSITY, priority 2022, published 2026).

The structures appear in SMILES notation.

For test [1], the system named is IL-5. In words: Auricular tissue IL-5 ELISA, atopic dermatitis mice. The test is classed as in vivo, mouse. The settings on record: day 7, topical application, control 15, vehicle 32. Here is the method: MC903 at 2 nM was applied to the right auricle of a 6-week-old male Balb/c (Japan SLC Inc.). Starting 8 h later, 5% norathyriol aqueous solution (1 mL of ethanol containing […] of norathyriol), betamethasone ointment, and delgocitinib ointment were applied to the auricle for 7 days. The measurement of auricular skin swelling was calculated by calipers. The day on which the first application of the compound was made was defined as day 0. Betamethasone and delgocitinib are currently in clinical use in atopic dermatitis and were used as control drugs in this example.
The mouse IL-5 ELISA kit (R&D) was used for this measurement.
(In general: An ELISA detects its analyte on a solid surface through an enzyme-linked reagent.)

Test [2] deals with Treg cells. In words: Treg cell activation in inflammation-induced mouse model (Foxp3 flow cytometry). The class given is in vivo. The settings on record: DBA/1J mice, Freund's complete adjuvant + bovine type2 collagen; oral 10 mg/kg daily 20 days; thymus cells; vs vehicle group. As to the method: Equal volume mixtures of Freund's complete adjuvant and Bovine type2 collagen were administered to 6-week-old male DBA/1J mice (Japan SLC Inc.) at 0.1 mL (day 0 of the study). 21 days later, DBA/1J mice were again injected with 0.1 mL of the above mixture for secondary immunization. After the second immunization, mice were orally treated with 10 mg/kg of mangiferin 8a and 10 mg/kg of norathyriol daily for 20 days. 20 days later, thymus glands were harvested from mice and stained with anti-CD4, anti-CD25 and anti-Foxp3 antibodies, which are Treg cell markers, and expression of Foxp3 (CD4 positive and CD25 positive) was measured using BD LSRFortessa.
For orientation: Flow cytometry measures light scatter and fluorescence of single cells or particles in a stream.

Test [3] deals with T1, NIK (Mus musculus, UniProt Q9WUL6).
T1 construct: Proteins were extracted with cell lysate and used as samples; endogenous in cells; host or cells: primary splenic B cells from 6-week-old male Balb/c mice
Nature of the test: LPS-induced NIK activation in B cells (Western blotting, phospho-NIK). The test is classed as cell-based. The settings on record: 10 μM compound 23 h, then 10 μg/mL LPS 1 h. As to the method: Spleens were harvested from 6-week-old male Balb/c mice and B cells were isolated. After isolation, the cells were seeded in […] dish and cultured in RPMI 1640 medium for 1 day and used as control. In addition, B cells were seeded into 100 mm^2 dish, and after 1 day of culture, 10 μg/mL LPS was added and cultured for 1 h. Furthermore, B cells were seeded in […] dish, and after 1 day of culture, 10 μM mangiferin 8a and 10 μM norathyriol were added to B cells, and after 23 h, 10 μg/mL LPS was added to each, and the cells were incubated for 1 h. All were incubated at 37° C. and 5% CO2.
Proteins were extracted with cell lysate and used as samples. Each sample was transferred to a PVDF membrane after SDSPAGE and assayed with anti-phospho-NIK, anti-NIK, anti-NF-κB p52, anti-NF-κB p65 and anti-Lamin antibodies.
The antibody species is indicated in the vertical direction. Specifically, in the case of anti-phospho-NIK antibody (described as “Phospho-NIK”), anti-NIK antibody (described as “NIK”), anti-NF-κB p52 antibody (described as “NF-κB p52 nuclear”), anti-NF-κB p65 antibody (described as “NF-κB p65 nuclear”) and anti-Lamin antibody (described as “Lamin”).

Test [4] deals with IL-6. Nature of the test: LPS-stimulated IL-6 secretion in B cells (ELISA). The test is classed as cell-based, mouse. The settings on record: 10 μM compound, 10 μg/mL LPS 2 days, control 9.46, LPS 246.13. As to the method:
Mouse B cells were used to examine the inhibition of compounds on IL-6 secretion in LPS stimulation.
Mouse B cells were cultured in RPMI 1640 medium for 1 day. Then, 10 μM mangiferin 8a and 10 μM norathyriol were added to B cells, and after 1 day of culture, 10 μg/mL of LPS was added to each, followed by 2 days of culture.
Thus, the samples were divided into “control” with no treatment, “10 μg/mL LPS+10 μM mangiferin 8a” to which 10 μg/mL LPS and 10 μM mangiferin 8a were added, and “10 μg/mL LPS+10 μM norathyriol” to which 10 μg/mL LPS and 10 μM norathyriol were added and only 10 μg/mL LPS was added (“10 μg/L LPS”).
After these samples were incubated for 2 days, the culture supernatant was collected and IL-6 secretion was measured by enzyme-linked immunosorbent assay (ELISA). The mouse IL-6 ELISA kit (R&D) was used for this measurement.

Test [5] deals with TNFα. In words: LPS-stimulated TNFα secretion in macrophages (ELISA). The test is classed as cell-based, mouse. The settings on record: 10 μM compound, 10 μg/mL LPS 2 days, control 24.11, LPS 421.13. As to the method:
Mouse macrophages were used to examine the inhibition of compounds on TNFα secretion in LPS stimulation.
Mouse macrophages were cultured in RPMI 1640 medium for 1 day. Then, 10 μM mangiferin 8a and 10 μM norathyriol were added to macrophages, and after 1 day of culture, 10 μg/mL of LPS was added to each, followed by 2 days of culture.
Thus, the samples were divided into “control” with no treatment, “10 μg/mL LPS+10 μM mangiferin 8a” to which 10 μg/mL LPS and 10 μM mangiferin 8a were added, and “10 μg/mL LPS+10 μM norathyriol” to which 10 μg/mL LPS and 10 μM norathyriol were added and only 10 μg/mL LPS was added (“[…] LPS”).
After these samples were incubated for 2 days, the culture supernatant was collected and TNFα secretion was measured by enzyme-linked immunosorbent assay (ELISA). The mouse TNFα ELISA kit (R&D) was used for this measurement.

Test [6] concerns IL-6. In words: LPS-stimulated IL-6 secretion in macrophages (ELISA). The class given is cell-based, mouse. Particulars: 10 μM compound, 10 μg/mL LPS 2 days, control 13.13, LPS 321.13. As to the method:
Mouse macrophages were used to examine the inhibition of compounds on IL-6 secretion in LPS stimulation.
Mouse macrophages were cultured in RPMI 1640 medium for 1 day. Then, 10 μM mangiferin 8a and 10 μM norathyriol were added to macrophages, and after 1 day of culture, 10 μg/mL of LPS was added to each, followed by 2 days of culture. After these samples were incubated for 2 days, the culture supernatant was collected and IL-6 secretion was measured by enzyme-linked immunosorbent assay (ELISA). The mouse IL-6 ELISA kit (R&D) was used for this measurement.

T1 sequence (Q9WUL6 whole entry): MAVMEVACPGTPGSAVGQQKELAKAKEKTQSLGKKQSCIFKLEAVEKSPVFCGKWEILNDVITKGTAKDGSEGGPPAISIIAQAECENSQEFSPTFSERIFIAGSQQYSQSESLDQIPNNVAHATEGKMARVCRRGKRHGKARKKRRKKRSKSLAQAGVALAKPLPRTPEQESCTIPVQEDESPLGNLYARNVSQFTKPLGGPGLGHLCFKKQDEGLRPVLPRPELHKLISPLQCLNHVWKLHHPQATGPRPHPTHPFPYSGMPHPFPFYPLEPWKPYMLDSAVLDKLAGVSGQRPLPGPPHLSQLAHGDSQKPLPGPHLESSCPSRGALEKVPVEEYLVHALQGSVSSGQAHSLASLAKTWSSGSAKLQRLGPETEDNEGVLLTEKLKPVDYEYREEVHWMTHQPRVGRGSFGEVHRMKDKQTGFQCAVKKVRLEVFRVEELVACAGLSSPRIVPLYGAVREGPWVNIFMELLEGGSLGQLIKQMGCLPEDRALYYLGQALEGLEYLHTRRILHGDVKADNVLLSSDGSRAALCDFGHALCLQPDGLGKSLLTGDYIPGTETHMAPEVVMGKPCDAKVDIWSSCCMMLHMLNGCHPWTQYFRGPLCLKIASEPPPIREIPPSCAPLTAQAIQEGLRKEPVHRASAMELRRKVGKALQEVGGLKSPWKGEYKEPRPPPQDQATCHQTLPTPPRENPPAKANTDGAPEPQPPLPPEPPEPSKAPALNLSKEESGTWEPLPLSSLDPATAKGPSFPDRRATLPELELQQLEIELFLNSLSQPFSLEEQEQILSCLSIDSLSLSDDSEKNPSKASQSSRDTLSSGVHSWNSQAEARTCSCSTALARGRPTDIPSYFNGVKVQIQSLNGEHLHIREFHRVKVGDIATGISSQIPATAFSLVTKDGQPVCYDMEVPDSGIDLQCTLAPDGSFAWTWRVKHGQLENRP

Take `O=c1c2cc(O)c(O)cc2oc2cc(O)cc(O)c12` [norathyriol, 1,3,6,7-tetrahydroxyxanthone]: the IL-5 secretion in test [1] is 14 pg/mL. In test [2], the “Foxp3 expression (CD4 positive and CD25 positive)” value is reported as “slightly increased”. The “phospho-NIK band (immunoblotting)” value in test [3] was “fainter”. The results for the IL-6 secretion in test [4] and in test [6] were 56.13 pg/mL and 64.13 pg/mL, respectively. This compound also displayed a TNFα secretion in test [5] of 68.13 pg/mL.
